Measured values published in ChEMBL document CHEMBL1201862, “PubChem BioAssay data set” (2004).
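Where inhibition never reached the appropriate level, the endpoint shown equals the highest concentration tested. Otherwise, values were interpolated linearly from a five-concentration, 48-hour dose response in 96-well plates. Abbreviation: GI50, concentration required for 50% inhibition of growth.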 Active and inactive are the calls of the source. No stated cut-off is given here; in the data, active = GI50 up to about 1.1 µM and inactive = higher.

Key:
Experiment in all cases: growth of human tumour cells (NCI), 48 h
A549 = tested on: A549
EKVX = tested on: EKVX
HCC 2998 = tested on: HCC 2998
HCT-15 = tested on: HCT-15
HL-60 = tested on: HL-60
HOP-92 = tested on: HOP-92
IGROV-1 = tested on: IGROV-1
LOX IMVI = tested on: LOX IMVI
MDA-MB-435 = tested on: MDA-MB-435
NCI-H226 = tested on: NCI-H226
NCI-H522 = tested on: NCI-H522
RXF 393 = tested on: RXF 393
SF-295 = tested on: SF-295
SK-OV-3 = tested on: SK-OV-3
SR = tested on: SR
SW-620 = tested on: SW-620

Row | SMILES | GI50 (A549) | GI50 (EKVX) | GI50 (HCC 2998) | GI50 (HCT-15) | GI50 (HL-60) | GI50 (HOP-92) | GI50 (IGROV-1) | GI50 (LOX IMVI) | GI50 (MDA-MB-435) | GI50 (NCI-H226) | GI50 (NCI-H522) | GI50 (RXF 393) | GI50 (SF-295) | GI50 (SK-OV-3) | GI50 (SR) | GI50 (SW-620)
1 | O=C1OC2(c3ccc(O)cc3Oc3cc(O)ccc32)c2c1c(-c1ccccc1)c(-c1ccccc1)c(-c1ccccc1)c2-c1ccccc1 | 34.5 µM (inactive) | 25.8 µM (inactive) | 16.4 µM (inactive) | 18.7 µM | 14.8 µM (inactive) | 20 µM (inactive) | 19.1 µM (inactive) | 18.5 µM (inactive) | 17.2 µM (inactive) | 46.3 µM (inactive) | 18.2 µM (inactive) | 23.7 µM (inactive) | 21.6 µM (inactive) | 39 µM (inactive) | 22.6 µM (inactive) | 20.9 µM (inactive)
2 | CC(C)(C)N(Cc1ccc2c(c1)OCO2)C(=O)/C=C\[S+]([O-])c1ccccc1 (stereo unspecified) | 4.6 µM (inactive) | 7.29 µM (inactive) | 4.45 µM (inactive) | 2.65 µM | 2.11 µM (inactive) | 2.29 µM (inactive) | 3.21 µM (inactive) | 1.44 µM (inactive) | 2.12 µM (inactive) | 2.74 µM (inactive) | 0.516 µM (active) | 1.91 µM (inactive) | 9.79 µM (inactive) | 3.01 µM (inactive) | 1.44 µM (inactive) | 2.07 µM (inactive)
3 | COc1cc(/C=C2\CCC(C)C3=C(c4cc(OC)c(OC)c(OC)c4)C(C#N)=C(N)OC32)cc(OC)c1OC (stereo unspecified) | 3.46 µM (inactive) | 3.08 µM (inactive) | 4.16 µM (inactive) | 2.08 µM | 1.67 µM (inactive) | 3.17 µM (inactive) | 4.94 µM (inactive) | 2 µM (inactive) | 2.76 µM (inactive) | 2.98 µM (inactive) | 2.42 µM (inactive) | 1.65 µM (inactive) | 3.65 µM (inactive) | 5.32 µM (inactive) | 1.49 µM (inactive) | 3.97 µM (inactive)
4 | [O-][Cl+3]([O-])([O-])O.c1ccc(C2=NN2c2ccccc2)cc1 | 7.96 µM (inactive) | 92.7 µM (inactive) | 6.28 µM (inactive) | 7.89 µM | – | > 100 µM (inactive) | 34 µM (inactive) | 0.451 µM (active) | 2.83 µM (inactive) | 14.3 µM (inactive) | 35.3 µM (inactive) | > 100 µM (inactive) | > 100 µM (inactive) | > 100 µM (inactive) | 26.7 µM (inactive) | 6.01 µM (inactive)
5 | CC(C)(C)OC(=O)NC(Cc1ccc(OCc2ccccc2)cn1)C(=O)NCc1ccccc1 (stereo unspecified) | 36.6 µM (inactive) | 26.2 µM (inactive) | 34.2 µM (inactive) | 24.6 µM | 15.1 µM (inactive) | 20 µM (inactive) | 32.3 µM (inactive) | 19.1 µM (inactive) | 20.1 µM (inactive) | – | 17.1 µM (inactive) | 27.9 µM (inactive) | 21.2 µM (inactive) | 22.1 µM (inactive) | 10.1 µM (inactive) | 31.3 µM (inactive)
6 | COc1ccc(-c2nc(-c3cc4ccccc4oc3=O)cs2)cc1 | 85.7 µM (inactive) | > 100 µM (inactive) | 77.8 µM (inactive) | > 100 µM | > 100 µM (inactive) | 60.8 µM (inactive) | 86.1 µM (inactive) | > 100 µM (inactive) | > 100 µM (inactive) | > 100 µM (inactive) | > 100 µM (inactive) | 85.3 µM (inactive) | > 100 µM (inactive) | 29.6 µM (inactive) | > 100 µM (inactive) | > 100 µM (inactive)
7 | c1ccc2c(CN3CCN(Cc4c[nH]c5ccccc45)CC3)c[nH]c2c1 | – | 13.3 µM (inactive) | 1.63 µM (inactive) | 20 µM | 17.5 µM (inactive) | 14.8 µM (inactive) | 11.9 µM (inactive) | 16.3 µM (inactive) | 16.2 µM (inactive) | 16.5 µM (inactive) | 16.5 µM (inactive) | 14.3 µM (inactive) | 16 µM (inactive) | 21.4 µM (inactive) | 19.7 µM (inactive) | 28 µM (inactive)
8 | COc1ccc2c(c1)C(OC)C1c3c(cc4c(c3-2)OCO4)CCN1C (stereo unspecified) | 2.92 µM (inactive) | 4.34 µM (inactive) | 3.4 µM (inactive) | 2.13 µM | 1.24 µM (inactive) | 0.925 µM (active) | 2.88 µM (inactive) | 2.81 µM (inactive) | 3.34 µM (inactive) | 2.39 µM (inactive) | 1.56 µM (inactive) | 2.06 µM (inactive) | 2.38 µM (inactive) | 4.5 µM (inactive) | 2.4 µM (inactive) | 2.32 µM (inactive)
9 | O[C@@H]1CCC[C@@H]2NC[C@@H](c3ccc4c(c3)OCO4)[C@H]12 | > 100 µM (inactive) | > 100 µM (inactive) | > 100 µM (inactive) | > 100 µM | 96.4 µM (inactive) | > 100 µM (inactive) | > 100 µM (inactive) | > 100 µM (inactive) | > 100 µM (inactive) | > 100 µM (inactive) | > 100 µM (inactive) | > 100 µM (inactive) | > 100 µM (inactive) | > 100 µM (inactive) | > 100 µM (inactive) | > 100 µM (inactive)
10 | COc1ccc2c3c1OC1C(OC)(OC)C=C[C@@]4(Br)[C@@H](C2)N(CC2CC2)CC[C@]314 (stereo partly specified) | 95.7 µM (inactive) | > 100 µM (inactive) | > 100 µM (inactive) | > 100 µM | > 100 µM (inactive) | 23.8 µM (inactive) | 62.2 µM (inactive) | 87.9 µM (inactive) | 61.2 µM (inactive) | 58.5 µM (inactive) | 21 µM (inactive) | 76.4 µM (inactive) | > 100 µM (inactive) | > 100 µM (inactive) | > 100 µM (inactive) | 33.7 µM (inactive)
11 | CC(=O)c1sc2n(C)c(=O)c3ccccc3[n+]2c1C | > 100 µM (inactive) | > 100 µM (inactive) | > 100 µM (inactive) | > 100 µM | > 100 µM (inactive) | 46.5 µM (inactive) | > 100 µM (inactive) | > 100 µM (inactive) | > 100 µM (inactive) | > 100 µM (inactive) | > 100 µM (inactive) | > 100 µM (inactive) | > 100 µM (inactive) | > 100 µM (inactive) | > 100 µM (inactive) | > 100 µM (inactive)
12 | O=C1N(CN2CCOCC2)CN(CN2CCOCC2)C(=O)N1Cc1ccccc1 | 40.4 µM (inactive) | 38.5 µM (inactive) | 30.9 µM (inactive) | 27.6 µM | – | 25.8 µM (inactive) | 24.5 µM (inactive) | 15.5 µM (inactive) | 20 µM (inactive) | 37.1 µM (inactive) | 13.3 µM (inactive) | 17.7 µM (inactive) | > 100 µM (inactive) | > 100 µM (inactive) | 18.8 µM (inactive) | 22 µM (inactive)
13 | CCN(CC)CCCNc1nncc2c(C)c3[nH]c4ccccc4c3cc12 | 0.67 µM (active) | 1.37 µM (inactive) | 0.802 µM (active) | 7.57 µM | 0.267 µM (active) | 0.847 µM (active) | 0.617 µM (active) | 0.242 µM (active) | 1.25 µM (inactive) | 0.255 µM (active) | 0.16 µM (active) | 1.63 µM (inactive) | 2.74 µM (inactive) | 0.989 µM (active) | 0.247 µM (active) | –
14 | CCOC(=O)c1c(N2CCOCC2)[nH]c(=O)c(C(c2c(Cl)cccc2Cl)c2c(O)c(C(=O)OCC)c(N3CCOCC3)[nH]c2=O)c1O | 18.2 µM (inactive) | 18.9 µM (inactive) | 19.4 µM (inactive) | 4.63 µM | 1.96 µM (inactive) | 2.09 µM (inactive) | 4.09 µM (inactive) | 2.91 µM (inactive) | 3.48 µM (inactive) | 13.8 µM (inactive) | 1.83 µM (inactive) | 2.19 µM (inactive) | 16 µM (inactive) | 11.2 µM (inactive) | 3.97 µM (inactive) | 1.7 µM (inactive)
15 | CCOC(=O)C1=C(c2ccccc2)C12N(Cc1ccccc1)C(=O)C2(c1ccccc1)c1ccccc1 (stereo unspecified) | – | 38.8 µM (inactive) | 28.1 µM (inactive) | 30.8 µM | 34.9 µM (inactive) | 20 µM (inactive) | 56.1 µM (inactive) | 34.9 µM (inactive) | 34.8 µM (inactive) | 26.3 µM (inactive) | 32.8 µM (inactive) | 28.3 µM (inactive) | 41.5 µM (inactive) | 47.9 µM (inactive) | 45.3 µM (inactive) | 42.2 µM (inactive)
16 | COc1cc([C@@H]2c3cc4c(cc3[C@H](OC3OC5COC(C(C)C)OC5C(O)C3O)C3COC(=O)[C@@H]32)OCO4)cc(OC)c1OC (stereo partly specified) | 3.96 µM (inactive) | 10.2 µM (inactive) | 5.16 µM (inactive) | 4.49 µM | 3.85 µM (inactive) | 6.85 µM (inactive) | 4.17 µM (inactive) | 3.01 µM (inactive) | 4.37 µM (inactive) | 2.96 µM (inactive) | 3.24 µM (inactive) | 2.3 µM (inactive) | 3.47 µM (inactive) | 6.32 µM (inactive) | 2.11 µM (inactive) | 4.48 µM (inactive)
17 | CC1=CC(=O)N(n2c(C)n[nH]c2=O)C1=O | > 100 µM (inactive) | > 100 µM (inactive) | > 100 µM (inactive) | > 100 µM | – | > 100 µM (inactive) | > 100 µM (inactive) | > 100 µM (inactive) | > 100 µM (inactive) | > 100 µM (inactive) | > 100 µM (inactive) | > 100 µM (inactive) | > 100 µM (inactive) | > 100 µM (inactive) | > 100 µM (inactive) | > 100 µM (inactive)
18 | Br[Se]c1ccccn1 | 21.6 µM (inactive) | 17.6 µM (inactive) | 21.1 µM (inactive) | 19 µM | 17.6 µM (inactive) | 18.5 µM (inactive) | 17.5 µM (inactive) | 18.7 µM (inactive) | 17.3 µM (inactive) | 17.5 µM (inactive) | 16.4 µM (inactive) | 17.2 µM (inactive) | 4.5 µM (inactive) | 20.5 µM (inactive) | 23.4 µM (inactive) | 23.9 µM (inactive)
